Test results reported in ChEMBL document CHEMBL4732152, “Flavonoids from Woodfordia fruticosa as potential SmltD inhibitors in the alternative biosynthetic pathway of peptidoglycan” (Bioorg Med Chem Lett, 2021).
The source made the active and inactive calls. No cut-off for these calls is given here. *1 amine or outer side, *2 acyl side, *3 side chain or, on linkers, in order; H or OH if unused. Where a SMILES comes first, the peptide text is derived from it. Bridges are numbered along the chain shown (N, C = ends). Roman numbers before positions name the chains, in order. [ ]: non-standard residue; d: D form. Actinocin(1to9) = Cc1c2oc3c(C)ccc(C(=O)[*:2])c3nc-2c(C(=O)[*:1])c(N)c1=O; NMeV = CN[C@H](C(=O)O)C(C)C; Sar = CNCC(=O)O

How the values were obtained:
[1] = Inhibition of Stenotrophomonas maltophilia SmltD using UDP-MurNAc-L-Ala[…] as substrate in presence of ATP incubated for 5 mins by HPLC
[2] = tested on: Stenotrophomonas maltophilia; assay: Non-Competitive inhibition of Stenotrophomonas maltophilia SmltD using UDP-MurNAc-L-Ala[…] as substrate by Dixon plot analysis
[3] = tested on: Stenotrophomonas maltophilia; assay: Non-Competitive inhibition of Stenotrophomonas maltophilia SmltD using […] as substrate by Dixon plot analysis
[4] = Competitive inhibition of Stenotrophomonas maltophilia SmltD assessed as inhibition constant using ATP as substrate by Dixon plot analysis

SMILES | IC50 ([1]; read-out: IC50) | other results
OC[C@H]1O[C@@H](O)[C@H](O)[C@@H](O)[C@@H]1O [beta-D-Glucose] | – | IC50 [1]: Not Active
O=c1c(O[C@H]2OC[C@@H](O)[C@@H](O)[C@@H]2O)c(-c2ccc(O)cc2)oc2cc(O)cc(O)c12 | 2050 µM | –
O=C(OC[C@H]1O[C@@H](Oc2c(-c3ccc(O)cc3)oc3cc(O)cc(O)c3c2=O)[C@H](O)[C@@H](O)[C@@H]1O)c1cc(O)c(O)c(O)c1 | 460 µM | inhibition [2]: Active; inhibition [3]: Active; Ki [4]: 110 µM
O=c1c(O)c(-c2ccc(O)cc2)oc2cc(O)cc(O)c12 [KAEMPFEROL] | 2360 µM | –
Cc1c2oc3c(C)ccc(C(=O)N[C@@H]4C(=O)N[C@H](C(C)C)C(=O)N5CCC[C@H]5C(=O)N(C)CC(=O)N(C)[C@@H](C(C)C)C(=O)O[C@@H]4C)c3nc-2c(C(=O)N[C@@H]2C(=O)N[C@H](C(C)C)C(=O)N3CCC[C@H]3C(=O)N(C)CC(=O)N(C)[C@@H](C(C)C)C(=O)O[C@@H]2C)c(N)c1=O [DACTINOMYCIN] (I: T[dV]P[Sar][NMeV] / II: T[dV]P[Sar][NMeV]; ester I:1-I:C, II:1-II:C; linker I:N-II:N via Actinocin(1to9)) | 14600 µM | –
O[C@H]1[C@H](O)[C@@H](O)OC[C@H]1O | – | IC50 [1]: Not Active
O=C(O)c1cc(O)c(O)c(O)c1 [GALLIC ACID] | 2860 µM | –
O=c1c(O[C@@H]2O[C@H](CO)[C@@H](O)[C@H](O)[C@H]2O)c(-c2ccc(O)cc2)oc2cc(O)cc(O)c12 [ASTRAGALIN] | 1180 µM | –
